Consider 16 compounds from ChEMBL document CHEMBL5050844 (2019).

Holding throughout (assay type): functional, T cell line
Test [1] can be described thus: Induction of anti-CD3/CD28 antibodies-stimulated human T cell activation at 4 uM assessed fold increase in CD25 expression measured by ELISA assay. A general note: In an ELISA, binding on a coated surface is turned into a signal by an enzyme label.
A short description of test [2]: Induction of anti-CD3/CD28 antibodies-stimulated human T cell activation at 0.3 uM assessed fold increase in CD25 expression measured by ELISA assay.
Test [3] can be described thus: Induction of anti-CD3 antibodies-stimulated human T cell activation at 8 uM assessed fold increase in IL-2 secretion measured by ELISA assay. Also: reference of the scale not given here.
Test [4] can be described thus: Induction of anti-CD3 antibodies-stimulated human T cell activation at 1 uM assessed fold increase in CD25 expression measured by ELISA assay. Also: reference of the scale not given here.
Test [5] can be described thus: Induction of anti-CD3/CD28 antibodies-stimulated human T cell activation at 4 uM assessed fold increase in IL-2 secretion measured by ELISA assay.
A short description of test [6]: Induction of anti-CD3/CD28 antibodies-stimulated human T cell activation at 0.3 uM assessed fold increase in IL-2 secretion measured by ELISA assay.
A short description of test [7]: Induction of anti-CD3/CD28 antibodies-stimulated human T cell activation at 1 uM assessed fold increase in CD25 expression measured by ELISA assay.
Test [8] is described as follows: Induction of anti-CD3 antibodies-stimulated human T cell activation at 8 uM assessed fold increase in CD25 expression measured by ELISA assay. Also: reference of the scale not given here.
A short description of test [9]: Induction of anti-CD3 antibodies-stimulated human T cell activation at 1 uM assessed fold increase in IL-2 secretion measured by ELISA assay. Also: reference of the scale not given here.
Test [10] in a line: Induction of anti-CD3/CD28 antibodies-stimulated human T cell activation at 1 uM assessed fold increase in IL-2 secretion measured by ELISA assay.

As to `C[C@H](Cc1nncn1C)c1cccc(N2Cc3c(Br)cccc3C2=O)c1`, the “fold change (FC)” value is 1.51 in test [1]; 1.01 in [2]; “>=0.201” in [3]; 0.801 in test [4]; “>=7.5” in [5]; 2.51 in [6]. The “fold change (FC)” value in [7] was 1.31; in test [8] it was 0.801; in [9], “>=0.201”; in [10] it was 5.

Take `Cn1cnnc1[C@@H]1CC[C@@H]1c1cccc(N2Cc3c(cccc3C(F)(F)F)C2=O)c1`: the “fold change (FC)” value is listed as 1.01 in [1]; 1.01 in [2]; “>=0.201” in test [3]; 0.601 in [4]; “>=7.5” in test [5]; 5 in test [6]. Also, the “fold change (FC)” value in [7] is 1.01; in test [8], 0.801; in test [9], 0.101; in test [10], “>=7.5”.

As to `C[C@H](Sc1nncn1C)c1cccc(NC(=O)c2cc3c(Cl)cccc3[nH]2)c1`, the “fold change (FC)” value in [1] is listed as 1.01; in test [2] it was “<=1”; in test [3], “>=0.201”; in [4] it was 0.601; in [5] it was 2.51; in test [6] it was 1.01. Further, the “fold change (FC)” value in test [7] is recorded as 1.01; in [8], 0.801; in test [9] it was “<=0.05”; in test [10], 1.01.

With `Cc1ccc(C(=O)Nc2cccc([C@H](C)Sc3nncn3C)c2)nc1C`, the “fold change (FC)” value in test [1] is reported as 1.31; in [2], “<=1”; in test [3] it was “>=0.201”; in [4] it was “<=0.6”; in test [5] it was 2.51; in test [6] it was 1.01. In addition, the “fold change (FC)” value in [7] is 1.01; in test [8], 0.601; in test [9] it was “<=0.05”; in [10], 2.51.

As for `Cc1ccc(C(=O)Nc2cccc(C(C)Cc3nccn3C)c2)nc1C1CC1` (stereo in doubt; 214), the “fold change (FC)” value is 1.01 in test [1]; “<=1” in [2]; 0.051 in test [3]; “<=0.6” in test [4]; “>=7.5” in test [5] (4 µM); “>=7.5” in [6] (0.3 µM). Besides, the “fold change (FC)” value in [7] is recorded as “<=1”; in [8] (8 µM), “<=0.6”; in test [9] (1 µM), 0.051; in test [10] (1 µM) it was “>=7.5”.

As for `C[C@H](Cc1nncn1C)c1cccc(NC(=O)c2[nH]nc3c2CCCC3)c1`, the “fold change (FC)” value in [1] is 1.01; in test [2], 1.01; in [3], 0.051; in test [4], 0.601; in test [5], 1.01; in test [6] it was 1.01. The “fold change (FC)” value is on record as 1.01 in [7], 0.801 in test [8], 0.051 in test [9] and 1.01 in [10].

As for `C[C@H](Cc1nncn1C)c1cccc(N2Cc3c(ccnc3C(F)(F)F)C2=O)c1`, the “fold change (FC)” value in [1] is listed as 1.01; in test [2], 1.01; in test [3], “>=0.201”; in test [4] it was 0.801; in test [5], 5; in test [6] it was 1.01. The “fold change (FC)” value in [7] is on record as 1.01; in test [8] it was “>=1.001”; in [9], 0.101; in test [10], 2.51.

In the case of `CCn1cnnc1C[C@@H](C)c1cccc(NC(=O)c2cc(C(=O)N3C[C@@H](O)C[C@H]3C)ccn2)c1`, the “fold change (FC)” value in test [1] is listed as 1.01; in test [2], 1.01; in [3], 0.151; in [4] it was 0.601; in [5] it was 1.01; in test [6], “<=1”. The “fold change (FC)” value is 1.01 in test [7], 0.601 in [8], 0.151 in test [9] and “<=1” in test [10].

With `Cn1cnnc1[C@H](F)[C@@](C)(F)c1cccc(N2Cc3c(cc(C4CC4)cc3C(F)(F)F)C2=O)c1` (single isomer, unassigned; 482), the “fold change (FC)” value is 1.01 in [1]; 1.01 in test [2]; 0.051 in test [3]; 0.601 in test [4]; 1.01 in [5]; “<=1” in test [6]. For the same compound, the “fold change (FC)” value in [7] was 1.01; in test [8], 0.801; in test [9], 0.051; in test [10], 1.01.

For the compound `Cn1cnnc1C(F)(F)[C@@](C)(F)c1cccc(N2Cc3c(cc(CN4CC[C@H](F)C4)cc3C(F)(F)F)C2=O)c1`, the “fold change (FC)” value is recorded as 1.01 in test [1]; “<=1” in test [2]; 0.051 in test [3]; 0.601 in test [4]; 1.01 in [5]; “<=1” in test [6]. For the same compound, the “fold change (FC)” value in test [7] is listed as “<=1”; in test [8], 0.801; in test [9], 0.051; in test [10], “<=1”.

Regarding `Cn1cnnc1[C@H](F)[C@](C)(F)c1cccc(N2Cc3c(cc(C4CC4)cc3C(F)(F)F)C2=O)c1`, the “fold change (FC)” value is recorded as 1.01 in test [1]; 1.01 in test [2]; 0.101 in test [3]; 0.801 in [4]; 2.51 in [5]; “<=1” in test [6]. Besides, the “fold change (FC)” value was 1.01 in test [7], “>=1.001” in test [8], 0.051 in [9] and 1.01 in test [10].

As for `CNS(=O)(=O)c1cc(C(=O)Nc2cccc([C@H](C)Cc3nncn3C)c2)nc(C(F)(F)F)c1`, the “fold change (FC)” value in test [1] was 1.01; in test [2] it was 1.01; in [3] it was “>=0.201”; in test [4], 0.801; in test [5], “<=1”; in test [6], 1.01. In addition, the “fold change (FC)” value is listed as 1.01 in test [7], “>=1.001” in test [8], 0.151 in test [9] and 1.01 in test [10].

Take `C[C@H](Sc1nncn1C)c1cccc(NC(=O)c2ccc(Cl)c(C(F)(F)F)n2)c1`: the “fold change (FC)” value in test [1] is listed as 1.01; in test [2], 1.01; in test [3], “<=0.05”; in [4] it was 0.801; in test [5], 1.01; in [6] it was “<=1”. The “fold change (FC)” value in test [7] is 1.01; in [8], “>=1.001”; in test [9], “<=0.05”; in test [10] it was “<=1”.

For `C[C@H](Cc1nncn1C)c1cccc(NC(=O)c2coc(C(F)(F)F)n2)c1`, the “fold change (FC)” value in test [1] is on record as 1.01; in test [2] it was 1.01; in test [3] it was 0.101; in test [4], 0.601; in [5], 1.01; in test [6] it was “<=1”. Besides, the “fold change (FC)” value in test [7] is 1.01; in test [8], 0.801; in test [9] it was 0.051; in test [10] it was 1.01.

Turning to `C[C@H](Sc1nncn1C)c1cccc(NC(=O)c2cc3cc(OCc4ccn[nH]4)ccc3cn2)c1`, the “fold change (FC)” value is reported as 1.01 in [1]; “<=1” in test [2]; 0.101 in test [3]; “<=0.6” in test [4]; 2.51 in test [5]; 1.01 in [6]. For the same compound, the “fold change (FC)” value in [7] is given as “<=1”; in [8], “<=0.6”; in [9] it was 0.051; in test [10] it was 1.01.

As to `Cc1conc1C[C@@H](C)c1cccc(N2Cc3c(cccc3C(F)(F)F)C2=O)c1`, the “fold change (FC)” value is on record as 1.01 in [1]; 1.01 in test [2]; 0.151 in test [3]; 0.601 in [4]; 1.01 in test [5]; “<=1” in [6]. Also, the “fold change (FC)” value in [7] was “<=1”; in [8] it was 0.801; in test [9], 0.051; in test [10] it was “<=1”.
